# How the values were obtained:
# [1] = test system: RCC4/VHL; assay: Necrotic cell death by trypan blue, RCC4/VHL; type: cell-based, human; conditions: 3 days, 5 μM, FIG. 2F
# Experimental: For 2,3-bis[2-methoxy-4-nitro-5-sulfophenyl]-2H-tetrazolium-5-carboxanilide (XTT) assays, five thousand cells were plated in 96-well plates. The next day, vehicle (DMSO) or drug was added by serial dilution. Four days later, media were aspirated, XTT solution (0.3 mg/ml of XTT (Sigma), 2.65 mg/ml N-methyl dibenxopyrazine methyl sulfate (Simga) in phenol red-free media) was added, and the plates were incubated at 37° C. for 1-2 hours. Metabolism of XTT was quantified by measuring the absorbance at 450 nm. IC50s were calculated using linear interpolation. For clonogenic survival assays, three hundred cells were plated per 60 mm tissue culture dish. The cells were allowed to attach overnight and then treated with vehicle or drug for 14 days. Colonies were fixed and stained with crystal violet (0.1% crystal violet in 95% ethanol). All conditions were measured in triplicate and each experiment was done in duplicate or triplicate. To determine necrosis, cells were treated with drug for a given time point. Media and cells were collected, centrifugated, and resuspended in 0.4% trypan blue (Invitrogen). Live and dead cells were counted on a hematocytometer.
# [2] = test system: p53; assay: DNA damage response (Western blot p53, phospho-p53); type: cell-based, human; conditions: RCC4 and RCC4/VHL, 1.25, 2.5 and 5 μM
# Experimental: (A) Clonogenic survival of RCC4 and RCC4/VHL treated with […] (5 μM)(*p<0.05). All error bars represent the standard error of the mean. […] RCC4 and RCC4/VHL cells were treated with increasing concentrations of compound 47 (1.25, 2.5 and 5 μM), a negative control (DMSO) and a positive control (4-(pyridin-4-yl)-N-(m-tolyl)thiazol-2-amine). Cells were lysed and probed for LC3, a marker of autophagy, or α-tubulin (loading control). […] RCC4 and RCC4/VHL cells were treated with vehicle, increasing concentrations of compound 47, and camptothecin. Cells were stained with DAPI and nuclear condensation was examined by fluorescence microscopy. (D) RCC4 cells were treated with compound 47 (5 μM) for the indicated time and stained with Annexin V and propidium iodide and subjected to FACS analysis. […] RCC4 and RCC4/VHL cells were subjected to increasing concentrations of compound 47 (1.25, 2.5, and 5 μM), a negative control (DMSO), and a positive control (doxorubicin). Cells were lysed and subjected to Western blot with the indicated antibodies.
# However, RCC cells without VHL undergo a necrotic cell death in response to compound 47 as measured by the ability of the cells to exclude trypan blue, an indicator of cell membrane integrity.
# [3] = test system: RCC4 cells transfected with siRNA to HIF-1β; assay: 3H-2-deoxyglucose uptake, RCC4 with siRNA to HIF-1β; type: cell-based, human; conditions: 5 μM, FIG. 3E
# Experimental: (§1) All cells were grown in DMEM+10% FCS. ACHN and ACHN shVHL were a kind gift from George V. Thomas (UCLA). HIF overexpressing clones were described previously. Transfection of RNA oligos were performed with DnarmaFECT Reagent 1 (Dharmcon), according to manufacturer's directions. ON-TARGETplus SMART pools against HIF-1β/ARNT were purchased from Dharmacon. Glut1 was detected with anti-GLUT1 antibody from NeoMarkers/LabVision/Fisher. Pyruvate/lactate levels and hexokinase activity were both measured by fluorometric assay (BioVision and Sigma-Aldrich, respectively). ATP levels were measured by bioluminescence assay (ATP Determination Kit from Molecular Probes/Invitrogen). In vitro kinase activities were performed by Millipore KinaseProfiler. Affi-Gel 10 (BioRad) activated affinity media was coupled to analogs to generate immobilized affinity linkers.
# One hundred thousand cells were plated per well in a six-well plate. The next day, cells were treated with the indicated concentration of drug and incubated for the indicated time. […] Glucose uptake was quantified with a scintillation counter.
# To further investigate the relationship between HIF and compound 47 toxicity, we silenced HIF-1β in RCC4 cells and assessed its affect on glucose uptake. […]
# [4] = test system: 50 different kinases; assay: In vitro kinase panel (Millipore KinaseProfiler), summary; type: biochemical
# Experimental: as §1
# (§2) We next wanted to investigate the differential glucose uptake between RCCs with and without VHL treated with compound 47 that subsequently lead to the selective death of VHL-deficient cells. We first examined the message levels of the two main glucose transporters, GLUT1 and GLUT2 by quantitative real-time PCR. GLUT1 is an inducible, high-affinity glucose transporter, while GLUT2 is the glucose transporter responsible for basal glucose uptake. […] Cells deficient in VHL had very low levels of GLUT2 that could barely be detected (FIG. 3J). […]
# [5] = molecular target: T1, Abl (Homo sapiens, UniProt P00519); assay: In vitro kinase activity (Millipore KinaseProfiler): Abl; type: biochemical; conditions: no head or unit printed
# T1 construct: purchased Millipore (KinaseProfiler service)
# Experimental: as §1, §2
# [6] = molecular target: T2, Fyn (Homo sapiens, UniProt P06241); assay: In vitro kinase activity (Millipore KinaseProfiler): Fyn; type: biochemical; conditions: no head or unit printed
# T2 construct: purchased Millipore (KinaseProfiler service)
# Experimental: as §1, §2
# [7] = molecular target: T3, IKKα (Homo sapiens, UniProt O15111); assay: In vitro kinase activity (Millipore KinaseProfiler): IKKα; type: biochemical; conditions: no head or unit printed
# T3 construct: purchased Millipore (KinaseProfiler service)
# Experimental: as §1, §2
# [8] = molecular target: T4, IR (Homo sapiens, UniProt P06213); assay: In vitro kinase activity (Millipore KinaseProfiler): IR; type: biochemical; conditions: no head or unit printed
# T4 construct: purchased Millipore (KinaseProfiler service)
# Experimental: as §1, §2
# [9] = molecular target: T5, MSK1 (Homo sapiens, UniProt O75582); assay: In vitro kinase activity (Millipore KinaseProfiler): MSK1; type: biochemical; conditions: no head or unit printed
# T5 construct: purchased Millipore (KinaseProfiler service)
# Experimental: as §1, §2
# T1 sequence (P00519 whole entry, species assumed): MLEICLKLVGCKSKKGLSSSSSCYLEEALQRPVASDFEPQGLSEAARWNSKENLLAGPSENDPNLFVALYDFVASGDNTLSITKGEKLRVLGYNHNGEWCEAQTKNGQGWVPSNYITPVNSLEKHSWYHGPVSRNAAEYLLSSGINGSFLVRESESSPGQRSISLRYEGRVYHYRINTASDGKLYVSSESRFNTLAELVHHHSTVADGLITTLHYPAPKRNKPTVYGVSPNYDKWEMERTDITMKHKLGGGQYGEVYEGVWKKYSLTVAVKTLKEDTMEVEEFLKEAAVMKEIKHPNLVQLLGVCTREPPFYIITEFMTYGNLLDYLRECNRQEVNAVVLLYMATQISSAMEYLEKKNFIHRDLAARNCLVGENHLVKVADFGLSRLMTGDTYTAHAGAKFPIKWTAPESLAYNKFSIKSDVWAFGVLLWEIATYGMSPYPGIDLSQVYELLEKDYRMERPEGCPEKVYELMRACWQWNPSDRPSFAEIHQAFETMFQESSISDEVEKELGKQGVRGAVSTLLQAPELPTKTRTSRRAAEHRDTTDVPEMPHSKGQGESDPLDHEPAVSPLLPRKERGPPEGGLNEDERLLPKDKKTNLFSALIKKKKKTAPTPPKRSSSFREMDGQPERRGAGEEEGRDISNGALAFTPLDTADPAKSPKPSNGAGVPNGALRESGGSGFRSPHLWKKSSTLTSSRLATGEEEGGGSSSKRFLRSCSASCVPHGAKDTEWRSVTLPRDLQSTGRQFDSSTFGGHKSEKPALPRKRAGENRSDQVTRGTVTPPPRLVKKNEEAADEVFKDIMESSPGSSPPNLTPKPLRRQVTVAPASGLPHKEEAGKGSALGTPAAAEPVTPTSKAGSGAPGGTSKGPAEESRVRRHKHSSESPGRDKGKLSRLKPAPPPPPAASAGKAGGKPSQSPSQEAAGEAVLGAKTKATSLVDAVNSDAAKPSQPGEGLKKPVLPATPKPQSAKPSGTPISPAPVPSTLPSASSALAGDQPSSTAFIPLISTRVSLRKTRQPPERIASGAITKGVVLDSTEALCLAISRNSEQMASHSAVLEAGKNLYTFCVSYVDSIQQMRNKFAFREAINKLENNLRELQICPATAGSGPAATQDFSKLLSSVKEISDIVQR
# T4 sequence (P06213 28-1382): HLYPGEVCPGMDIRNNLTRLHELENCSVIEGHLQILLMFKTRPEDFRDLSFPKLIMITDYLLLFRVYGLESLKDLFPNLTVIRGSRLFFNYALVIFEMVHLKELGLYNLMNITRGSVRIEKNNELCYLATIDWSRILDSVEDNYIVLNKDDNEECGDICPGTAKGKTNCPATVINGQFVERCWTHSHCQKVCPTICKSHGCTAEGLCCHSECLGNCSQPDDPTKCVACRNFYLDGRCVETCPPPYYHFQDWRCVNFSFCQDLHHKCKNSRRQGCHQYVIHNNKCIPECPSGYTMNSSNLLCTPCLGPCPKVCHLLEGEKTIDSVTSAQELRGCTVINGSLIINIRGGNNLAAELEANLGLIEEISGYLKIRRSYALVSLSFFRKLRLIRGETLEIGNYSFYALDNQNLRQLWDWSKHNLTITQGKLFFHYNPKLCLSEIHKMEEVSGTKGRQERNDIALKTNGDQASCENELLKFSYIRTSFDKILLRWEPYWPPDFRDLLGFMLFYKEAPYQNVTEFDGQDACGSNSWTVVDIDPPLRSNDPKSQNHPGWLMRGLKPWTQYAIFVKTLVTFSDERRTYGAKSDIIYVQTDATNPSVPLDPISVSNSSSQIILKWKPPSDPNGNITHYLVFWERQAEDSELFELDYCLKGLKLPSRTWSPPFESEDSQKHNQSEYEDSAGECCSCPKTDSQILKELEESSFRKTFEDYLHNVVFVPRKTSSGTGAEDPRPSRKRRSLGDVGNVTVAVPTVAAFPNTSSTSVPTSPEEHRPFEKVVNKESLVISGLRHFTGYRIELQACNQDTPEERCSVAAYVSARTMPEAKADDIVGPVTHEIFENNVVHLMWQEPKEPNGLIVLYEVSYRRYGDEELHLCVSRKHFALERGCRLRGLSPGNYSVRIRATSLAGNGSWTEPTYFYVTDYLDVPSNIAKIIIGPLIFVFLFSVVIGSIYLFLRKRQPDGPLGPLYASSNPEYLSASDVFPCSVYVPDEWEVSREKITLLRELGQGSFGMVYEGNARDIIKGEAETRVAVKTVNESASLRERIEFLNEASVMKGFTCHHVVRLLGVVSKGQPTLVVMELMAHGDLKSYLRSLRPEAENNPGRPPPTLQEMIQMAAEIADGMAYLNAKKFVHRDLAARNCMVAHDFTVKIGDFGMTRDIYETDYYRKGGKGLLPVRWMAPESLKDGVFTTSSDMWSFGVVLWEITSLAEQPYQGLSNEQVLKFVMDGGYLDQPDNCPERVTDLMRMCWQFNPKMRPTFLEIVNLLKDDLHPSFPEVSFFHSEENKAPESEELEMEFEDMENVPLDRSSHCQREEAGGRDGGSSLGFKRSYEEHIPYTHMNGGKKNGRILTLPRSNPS
# T5 sequence (O75582 whole entry, species assumed): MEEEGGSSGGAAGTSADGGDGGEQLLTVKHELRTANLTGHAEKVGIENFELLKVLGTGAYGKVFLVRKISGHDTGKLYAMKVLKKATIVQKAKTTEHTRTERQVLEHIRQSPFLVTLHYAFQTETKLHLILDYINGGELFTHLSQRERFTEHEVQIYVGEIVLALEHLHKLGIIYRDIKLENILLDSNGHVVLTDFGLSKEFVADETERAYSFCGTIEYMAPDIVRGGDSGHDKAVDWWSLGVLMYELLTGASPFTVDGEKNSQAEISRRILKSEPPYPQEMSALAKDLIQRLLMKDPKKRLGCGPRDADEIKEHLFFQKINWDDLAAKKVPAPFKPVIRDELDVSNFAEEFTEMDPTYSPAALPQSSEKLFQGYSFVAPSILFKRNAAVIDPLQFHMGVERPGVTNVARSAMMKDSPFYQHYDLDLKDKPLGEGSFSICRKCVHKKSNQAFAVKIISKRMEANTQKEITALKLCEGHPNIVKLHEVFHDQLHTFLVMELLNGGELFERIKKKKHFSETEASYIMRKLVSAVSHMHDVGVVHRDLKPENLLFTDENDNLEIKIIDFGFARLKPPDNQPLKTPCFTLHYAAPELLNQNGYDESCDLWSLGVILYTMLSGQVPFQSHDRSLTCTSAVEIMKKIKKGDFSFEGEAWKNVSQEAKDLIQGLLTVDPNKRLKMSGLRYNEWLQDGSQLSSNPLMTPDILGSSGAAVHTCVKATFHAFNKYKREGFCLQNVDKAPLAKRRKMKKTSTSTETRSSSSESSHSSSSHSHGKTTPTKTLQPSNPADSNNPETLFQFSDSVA
# T2 sequence (P06241 whole entry, species assumed): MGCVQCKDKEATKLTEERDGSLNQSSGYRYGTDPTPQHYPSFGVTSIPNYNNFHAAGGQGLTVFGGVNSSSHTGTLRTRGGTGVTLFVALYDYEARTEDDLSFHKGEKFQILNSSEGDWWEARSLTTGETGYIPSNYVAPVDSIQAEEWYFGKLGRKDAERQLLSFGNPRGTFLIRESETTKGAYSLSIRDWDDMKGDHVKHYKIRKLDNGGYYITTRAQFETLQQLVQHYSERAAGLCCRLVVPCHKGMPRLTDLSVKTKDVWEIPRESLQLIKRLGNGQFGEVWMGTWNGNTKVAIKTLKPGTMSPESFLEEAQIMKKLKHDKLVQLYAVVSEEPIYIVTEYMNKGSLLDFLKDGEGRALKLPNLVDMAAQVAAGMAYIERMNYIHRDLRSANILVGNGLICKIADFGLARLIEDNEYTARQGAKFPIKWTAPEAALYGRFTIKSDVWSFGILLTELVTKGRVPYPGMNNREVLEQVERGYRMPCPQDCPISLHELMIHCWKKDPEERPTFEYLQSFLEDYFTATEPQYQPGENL
# T3 sequence (O15111 whole entry, species assumed): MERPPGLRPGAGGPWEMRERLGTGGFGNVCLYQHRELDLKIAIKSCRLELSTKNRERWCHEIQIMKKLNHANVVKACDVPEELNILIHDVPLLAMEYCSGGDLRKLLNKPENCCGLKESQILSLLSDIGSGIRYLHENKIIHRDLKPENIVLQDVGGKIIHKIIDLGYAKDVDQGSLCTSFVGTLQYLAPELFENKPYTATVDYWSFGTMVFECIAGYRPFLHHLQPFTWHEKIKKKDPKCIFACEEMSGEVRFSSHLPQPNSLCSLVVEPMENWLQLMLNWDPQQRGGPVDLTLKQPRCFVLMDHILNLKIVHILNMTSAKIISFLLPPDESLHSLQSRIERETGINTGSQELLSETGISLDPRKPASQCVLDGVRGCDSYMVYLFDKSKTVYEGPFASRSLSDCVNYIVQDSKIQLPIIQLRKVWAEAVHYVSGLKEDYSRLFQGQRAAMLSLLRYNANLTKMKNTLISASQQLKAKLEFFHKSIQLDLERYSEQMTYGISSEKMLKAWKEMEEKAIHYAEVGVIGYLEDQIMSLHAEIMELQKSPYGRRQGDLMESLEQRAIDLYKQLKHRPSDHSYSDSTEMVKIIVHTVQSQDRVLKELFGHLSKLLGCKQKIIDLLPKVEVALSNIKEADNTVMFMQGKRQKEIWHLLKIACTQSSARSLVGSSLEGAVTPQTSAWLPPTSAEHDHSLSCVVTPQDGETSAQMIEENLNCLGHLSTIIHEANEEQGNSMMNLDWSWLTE
smiles,measurement,setting,value
"CC(C)(C)c1ccc(S(=O)(=O)NCc2ccc(C(=O)Nc3cccnc3)cc2)cc1 [Example 38, 4-((4-tert-Butylphenylsulfonamido)methyl)-N-(pyridin-3-yl)benzamide]",necrotic cell death in RCC4/VHL,[1],relatively insensitive
same,total p53 or phospho-p53 levels (DNA damage response),[2],did not increase
same,glucose uptake in RCC4 with HIF-1β silenced,[3],insensitive
same,decrease in activity of 50 different kinases,[4],no significant decrease
same,Abl kinase activity,[5],108
same,Fyn kinase activity,[6],91%
same,IKKα kinase activity,[7],102
same,IR kinase activity,[8],121%
same,MSK1 kinase activity,[9],107

# Source: patent US20120225862A1, “HETEROARYL BENZAMIDES, COMPOSITIONS AND METHODS OF USE” (AUCKLAND UNIVSERVICES LIMITED, priority 2009, published 2012)
